As a reminder, the EC50 is the concentration at which the effect is half-maximal.

One series has as its system Central nervous system. Conditions: literature compound; cited from earlier work.
The test system of the next series is bacteria. As to conditions: literature compound; cited from earlier work.
Series [1] deals with retroperitoneal (white) and interscapular (brown) adipose tissue. The series can be described thus: Anti-obesity activity on diabetic obese mouse. Conditions: 3 mg/kg/day oral for three weeks, significantly different from control, p < 0.01. In kind it is in vivo, diabetic obese mouse (KK-Ay/Ta, Jcl. female). As for the experimental part: Experiment 3 Anti-obesity activity on diabetic obese mouse:
A test compound suspended in 0.5% tragacanth solution was orally administrated to a diabetic obese mouse (KK-Ay/Ta, Jcl. female; 50-60 g, Clea Japan Inc.) at a dose of 3 mg/kg/day for three weeks, and then, the retroperitoneal adipose tissue and the interscapulal adipose tissue were taken, and the weights thereof were measured as white adipose tissue and brown adipose tissue, respectively.

For series [2], the target named is T1, human β3 -adrenergic receptor (Homo sapiens, UniProt P13945).
T1 construct: expressed in transfected cells; host or cells: CHO-K1 (ATCC CCL 61), clone CHO/pKREX10-36
T1 sequence (P13945 whole entry): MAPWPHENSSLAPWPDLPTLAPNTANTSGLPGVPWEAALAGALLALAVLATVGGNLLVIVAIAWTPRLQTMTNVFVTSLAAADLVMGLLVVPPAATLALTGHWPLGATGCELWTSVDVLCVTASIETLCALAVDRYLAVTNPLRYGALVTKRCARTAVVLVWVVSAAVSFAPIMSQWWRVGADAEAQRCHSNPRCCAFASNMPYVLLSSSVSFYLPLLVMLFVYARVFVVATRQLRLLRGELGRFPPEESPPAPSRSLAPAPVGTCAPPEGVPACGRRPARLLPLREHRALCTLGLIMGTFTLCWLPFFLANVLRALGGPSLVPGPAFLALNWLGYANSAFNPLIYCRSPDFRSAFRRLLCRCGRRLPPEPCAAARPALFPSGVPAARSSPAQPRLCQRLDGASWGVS
The series can be described thus: Human β3-adrenergic receptor-stimulating activity (cAMP accumulation in CHO/pKREX10-36 cells). It is filed as cell-based. Conditions: for EC50: 50% of cAMP accumulation, CHO/pKREX10-36, 37° C., 30 minutes, read-out: EC50 value β3 -receptor; for Emax: read-out: I.A. value β3 -receptor. As for the experimental part: Establishment of the cell line highly expressing human β3 -adrenergic receptor
Separately, another expression vector for animal cells, pSV2-neo [Southern and Berg, J. Mol. Appl. Genet. […] These DNAs were ligated with DNA Ligation Kit (Takara Shuzo Co., Ltd.) and were introduced into E. coli HB101 in a conventional manner to give the transformants. Plasmid DNAs were prepared from the transformants and digested with a restriction endonuclease PstI. A clone which produced about 3.8 kbp, 2.2 kbp, 1.4 kbp, and 0.9 kbp fragments was selected to give a plasmid named pKCN0.
The reaction mixture was used for transformation of E. coli HB101 and plasmid DNAs were prepared from the selected transformants. The plasmid DNAs were digested with restriction endonucleases DraI and HindIII, and a clone which produced about 430 bp fragment was selected to give a plasmid named pKCN1 for expression vector.
10% Dimethyl sulfoxide was added to the reaction mixture at the PCR reaction.
After the reaction mixture was digested with restriction endonucleases Sse8387I and StuI, about 1.3 kbp fragment was isolated by electrophoresis. This fragment was ligated with expression vector pKCN1 which was digested with restriction endonucleases Sse8387I and EcoRV, and the resultant was introduced into E. coli HB101 in a conventional manner. Plasmid DNA was prepared from the selected transformant and the nucleotide sequence of the about 1.3 kbp fragment obtained by digestion of the plasmid DNA with restriction endonucleases Sse8387I and XhoI was determined. […] This plasmid for expressing human β3 -adrenergic receptor was named as pKREX10.
The reaction mixture was filtered with glass filter GF/C (Whatman) presoaked with 0.3% polyethyleneimine and washed by using BIO-DOT apparatus (Bio-Rad Laboratories), and the radioactivity on the filter was counted by γ-ray counter. […] Establishment of the cell line highly expressing human β2 -adrenergic receptor
(§1) Experiment 1 Human β-adrenergic receptor-stimulating activity:
(§2) The cells were peeled off by incubation with phosphate-buffered saline containing 0.5 mM EDTA at 37° C. for 10 minutes after the medium was removed. The CHO/pKREX10-36 cells were collected by centrifugation, and suspended in Hanks' balanced salts (ICN Biomedicals) containing 1 mM L-ascorbic acid and 1 mM 3-isobutyl-1-methylxanthine at the concentration of about 2×10^6cells/ml. This suspension (100μl) and a test compound were mixed in the same balanced salt (500 μl) and incubated at 37° C. for 30 minutes, followed by boiling for 5 minutes to terminate the reaction. After centrifugation of the reaction mixture, the amount of cAMP in the supernatant was measured by using cAMP EIA System (Amersham).
Background: cAMP levels reflect the balance of adenylyl cyclase and phosphodiesterase activity.

Series [3] concerns glucose level in the blood. The series can be described thus: Blood glucose reducing activity on fasted mouse. In kind it is in vivo, ddY male mouse. As to conditions: po, 3 h, read-out: Blood glucose reducing activity (ED25). As for the experimental part: Experiment 2 Blood glucose reducing activity on fasted mouse:
A test compound suspended in 0.5% tragacanth solution was orally administered to a ddY male mouse (weight: 20-30 g) under being fasted, and the blood was collected before and at three hours after the administration of the test compound. The glucose level in the blood was determined by the method of Kunst A., et al. (Hexokinase/G6PDH method) [Bergmeyer, H. U. (eds.), […], vol. VI, 3rd edition, Verlag Chemie GmbH, Weinheim·Deerfield Beach, Florida·Basel, 163-172 (1984)]. The blood glucose reducing activity of the test compound was expressed by ED25 value which is a concentration of the test compound required to reduce the glucose level in blood before the administration of the test compound by 25%. Gliclazide was used as a reference compound which is a commercially available drug for treatment of diabetes mellitus.

Series [4] addresses T2, human β2 -adrenergic receptor (Homo sapiens, UniProt P07550).
T2 construct: expressed in transfected cells; host or cells: CHO-K1, clone CHO/pKREX21-8
The series can be described thus: Human β2-adrenergic receptor-stimulating activity (cAMP accumulation in CHO/pKREX21-8 cells). In kind it is cell-based. As to conditions: for Emax: read-out: I.A. value β2 -receptor.
Description: cDNA was synthesized with Poly(A)^+ RNA derived from human brain (Clontech: trade number; CL6516-1) by using SuperScript Systems (Life Technologies).
After the reaction mixture was digested with restriction endonucleases Sse8387I and HindIII, about 1.4 kbp fragment was isolated by electrophoresis. This fragment was ligated with expression vector pKCN1 digested with restriction endonucleases Sse8387I and HindIII, and was introduced into E. coli HB101 in a conventional manner. Plasmid DNA was prepared from the selected transformant, and the nucleotide sequence of the about 1.4 kbp fragment obtained by digestion of this plasmid DNA with restriction endonucleases Sse8387I and HindIII was determined. […] This plasmid was named as pKREX21 for highly expressing human β2 -adrenergic receptor, and was introduced into CHO-K1 in the same manner as the method of establishment of the cell line highly expressing human β3 -adrenergic receptor.
as §1, §2
Similarly, the amount of cAMP was measured by using CHO/pKREX21-8 for highly expressing human β2 -adrenergic receptor instead of the CHO/pKREX10-36 for highly expressing human β3 -adrenergic receptor.

Series [5] is described as follows: Acute toxicity experiment using mice. In kind it is in vivo. As to conditions: oral administration at a dose of 300 mg/kg. The text has this:
Thus, when taking into consideration the therapeutically effective dose, the compounds of the present invention have no problem in safety to living body.

T2 sequence (P07550 whole entry): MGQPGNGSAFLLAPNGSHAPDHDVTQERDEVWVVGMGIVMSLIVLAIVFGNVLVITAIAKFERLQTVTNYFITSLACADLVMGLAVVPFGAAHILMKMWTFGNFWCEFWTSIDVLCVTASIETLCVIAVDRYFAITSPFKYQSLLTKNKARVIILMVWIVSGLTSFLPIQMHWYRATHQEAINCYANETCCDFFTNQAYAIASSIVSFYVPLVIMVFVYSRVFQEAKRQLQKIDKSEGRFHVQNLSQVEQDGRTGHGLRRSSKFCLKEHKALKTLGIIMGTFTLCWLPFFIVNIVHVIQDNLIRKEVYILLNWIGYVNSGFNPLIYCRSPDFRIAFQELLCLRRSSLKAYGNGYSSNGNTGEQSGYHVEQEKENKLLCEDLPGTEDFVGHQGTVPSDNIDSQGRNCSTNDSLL

Turning to `CC(Cc1c[nH]c2ccccc12)NCC(O)c1ccc(O)c(O)c1` (stereo not drawn), the “Pharmacological Activity (central nervous system)” value in the series with Central nervous system was “Central nervous system inhibitory”.
For `COc1ccc(C(O)CNCCc2c[nH]c3ccccc23)cc1Br` (stereo not drawn), in the series on bacteria, the “Pharmacological Activity (antibacterial)” value is given as “Antibacterial activity”.
Take `COc1cccc2c(CC(C)NCC(O)c3cccc(Cl)c3)c[nH]c12` (stereo not drawn) [Example 1, 2-[3-(7-methoxyindol-3-yl)-2-propylamino]-1-(3-chlorophenyl)ethanol]: the “Weight of brown adipose tissue” value in series [1] (control 0.460 ± 0.03) was found to be 0.289 ± 0.04 g. The “Weight of white adipose tissue” value in series [1] (control 4.92 ± 0.28) came to 2.35 ± 0.12 g. For the same compound, the EC50 in series [2] came out at 1.7 nM; in series [4] it was 25 nM. Further, the Emax in series [2] is 113%; in series [4] it was 33%. The ED25 in series [3] worked out at 0.05 mg/kg.
As for `COc1cccc2c(CC(C)NC[C@H](O)c3cccc(Cl)c3)c[nH]c12` (stereo partly drawn) [Example 1-A, 2-[3-(7-methoxyindol-3-yl)-2-propylamino]-(1R)-1-(3-chlorophenyl)ethanol], in series [2], the 50% effective concentration (EC50) came out at 0.67 nM and the Emax is 114%. The ED25 in series [3] worked out at 0.003 mg/kg. Besides, in series [4], a half-maximal effect (EC50) was put at 13 nM and the Emax was determined as 36%. Besides, the acute toxicity result in series [5] is given as “no toxicity at all”.

The values are drawn from patent US5817689A, “Indole derivatives having a 2-phenyl-ethanolamino-substituted lower alkyl group at the 2-or 3-position thereof” (priority 1994, dated 1998).
